SMILES strings stand for the structures. pIC50: −log10 of the molar value.

One assay has as its target JAK1 (Homo sapiens (Human), UniProt P23458). Briefly: Jak Biochemical HTRF Assay, JAK1. To be noted: HTRF biochemical assay, GST-tagged catalytic domain; top concentration tested […]; read-out: JAK1 IC50. The source says: (§1) Jak Biochemical HTRF Assay Protocol
(§2) Subsequent reagent additions employed an Agilent Bravo.

A further assay deals with JAK2 (Homo sapiens (Human), UniProt O60674). Put plainly: Jak Biochemical HTRF Assay, JAK2. The conditions noted are these: HTRF biochemical assay, GST-tagged catalytic domain; top concentration tested […].
JAK2, sequence (O60674 849-1124): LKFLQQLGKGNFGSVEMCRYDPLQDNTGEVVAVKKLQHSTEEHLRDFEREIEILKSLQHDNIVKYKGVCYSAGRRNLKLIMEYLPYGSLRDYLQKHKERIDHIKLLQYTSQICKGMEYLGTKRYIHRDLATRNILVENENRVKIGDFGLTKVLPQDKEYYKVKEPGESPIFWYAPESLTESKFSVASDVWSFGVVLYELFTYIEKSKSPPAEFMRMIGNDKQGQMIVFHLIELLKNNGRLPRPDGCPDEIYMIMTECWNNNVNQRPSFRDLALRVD
From the text: as §1, §2

JAK1, sequence (P23458 875-1153): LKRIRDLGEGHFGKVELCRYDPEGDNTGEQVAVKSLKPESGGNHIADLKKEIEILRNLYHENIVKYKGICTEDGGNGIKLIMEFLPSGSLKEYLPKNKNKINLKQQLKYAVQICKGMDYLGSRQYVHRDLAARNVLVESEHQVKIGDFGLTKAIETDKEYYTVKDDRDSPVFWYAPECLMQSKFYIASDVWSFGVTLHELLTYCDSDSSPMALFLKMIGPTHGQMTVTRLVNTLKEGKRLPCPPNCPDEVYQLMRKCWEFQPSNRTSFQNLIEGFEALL

Regarding `N#CCC1(n2cc(C(N)=O)c(Nc3ccc(F)cc3)n2)CCN(C(=O)OCC(F)F)CC1` [Example 30-7, 2,2-difluoroethyl 4-(4-carbamoyl-3-(4-fluorophenylamino)-1H-pyrazol-1-yl)-4-(cyanomethyl)piperidine-1-carboxylate], the pIC50 at JAK1 is 9.30; on JAK2, 8.05.
Taken in the same sequence, the figures for `N#CCC1(n2cc(C(N)=O)c(Nc3ccccc3)n2)CN(C(=O)OCCF)C1` [Example 30-50, 2-fluoroethyl 3-[4-carbamoyl-3-(phenylamino)-1H-pyrazol-1-yl]-3-(cyanomethyl)azetidine-1-carboxylate] were 8.70 and 7.57.
For `CC(C)(C)OC(=O)N1CCC(CC#N)(n2cc(C(N)=O)c(Nc3ccc(C#N)cc3)n2)CC1` [Example 9-5, tert-butyl 4-{4-carbamoyl-3-[(4-cyanophenyl)amino]-1H-pyrazol-1-yl}-4-(cyanomethyl)piperidine-1-carboxylate], the values for the pIC50 at JAK1 and at JAK2 were 9.70 and 8.22, respectively.
Regarding `N#CCC1(n2cc(C(N)=O)c(Nc3ccccc3)n2)CCN(C(=O)OCc2cccc(F)c2)CC1` [Example 30-32, 3-fluorobenzyl 4-[4-carbamoyl-3-(phenylamino)-1H-pyrazol-1-yl]-4-(cyanomethyl)piperidine-1-carboxylate], the results for the negative-log IC50 (pIC50) at JAK1 and against JAK2 were 8.40 and 7.06, respectively.
Taken in the same sequence, the figures for `COC(=O)N1CCC(CC#N)(n2cc(C(N)=O)c(Nc3ccccc3)n2)CC1` [Example 27-5, methyl 4-[4-carbamoyl-3-(phenylamino)-1H-pyrazol-1-yl]-4-(cyanomethyl)piperidine-1-carboxylate] were 7.30 and 6.63.
The matching figures for `N#CCC1(n2cc(C(N)=O)c(Nc3ccc(F)cc3)n2)CCN(c2ccc(F)cc2)CC1` [Example 3-38, 1-[4-(cyanomethyl)-1-(4-fluorophenyl)piperidin-4-yl]-3-[(4-fluorophenyl)amino]-1H-pyrazole-4-carboxamide]: 8.70 and 7.43.
As for `N#CCC1(n2cc(C(N)=O)c(Nc3ccccc3)n2)CCN(C(=O)c2ccc(N3CCOCC3)cc2)CC1` [Example 34-31, 1-{4-(cyanomethyl)-1-[(4-morpholin-4-ylphenyl)carbonyl]piperidin-4-yl}-3-(phenylamino)-1H-pyrazole-4-carboxamide], the negative-log IC50 (pIC50) is 7.21 at JAK1 and 6.15 against JAK2.
The matching figures for `COCCNC1CCC(CC#N)(n2cc(C(N)=O)c(Nc3ccc(F)cc3)n2)CC1` (stereo not drawn) [Example 40-71, Cis or trans 1-{1-(cyanomethyl)-4-[(2-methoxyethyl)amino]cyclohexyl}-3-[(4-fluorophenyl)amino]-1H-pyrazole-4-carboxamide]: 7.62 and 6.09.
`N#CCC1(n2cc(C(N)=O)c(Nc3ccccc3)n2)CCN(S(=O)(=O)C(F)(F)F)CC1` [Example 37-5, 1-{4-(cyanomethyl)-1-[(trifluoromethyl)sulfonyl]piperidin-4-yl}-3-(phenylamino)-1H-pyrazole-4-carboxamide]: the figures for the pIC50 on JAK1 and against JAK2 were 9.15 and 8.22, respectively.
Regarding `N#CCC1(n2cc(C(N)=O)c(Nc3ccnc(F)c3)n2)CCN(Cc2cnccn2)CC1` [Example 22-14, 1-[4-(cyanomethyl)-1-(pyrazin-2-ylmethyl)piperidin-4-yl]-3-[(2-fluoropyridin-4-yl)amino]-1H-pyrazole-4-carboxamide], the pIC50 at JAK1 is 9.22; against JAK2 it was 7.55.
Take `N#CCC1(n2cc(C(N)=O)c(Nc3ccccc3)n2)CCN(C(=O)c2ccccc2Cl)CC1` [Example 34-20, 1-{1-[(2-chlorophenyl)carbonyl]-4-(cyanomethyl)piperidin-4-yl}-3-(phenylamino)-1H-pyrazole-4-carboxamide]: the pIC50 at JAK1 was 7.89; against JAK2, 6.94.
Taken in the same sequence, the figures for `CC(C)(C)OC(=O)N1CCC(CC#N)(n2cc(C(N)=O)c(Nc3cnccn3)n2)CC1` [Example 13-7, tert-butyl 4-(4-carbamoyl-3-(pyrazine-2-ylamino)-1H-pyrazol-1-yl)-4-(cyanomethyl)piperidine-1-carboxylate] were 8.10 and 6.68.
Taken in the same sequence, the figures for `N#CCC1(n2cc(C(N)=O)c(Nc3ccccc3)n2)CN(S(=O)(=O)Cc2ccccc2)C1` [Example 37-20, 1-[1-(benzylsulfonyl)-3-(cyanomethyl)azetidin-3-yl]-3-(phenylamino)-1H-pyrazole-4-carboxamide] were 6.98 and 6.28.
Regarding `N#CCC1(n2cc(C(N)=O)c(Nc3ccnc(F)c3)n2)CCN(Cc2cn[nH]c2)CC1` [Example 22-5, 1-[4-(cyanomethyl)-1-(1H-pyrazol-4-ylmethyl)piperidin-4-yl]-3-[(2-fluoropyridin-4-yl)amino]-1H-pyrazole-4-carboxamide], the negative-log IC50 (pIC50) at JAK1 was 8.22; on JAK2, 7.15.
The matching figures for `N#CCC1(n2cc(C(N)=O)c(Nc3ccc(F)cc3)n2)CCC(NC2CCOCC2)CC1` (stereo not drawn) [Example 40-5, Cis or trans 1-[1-(cyanomethyl)-4-(tetrahydro-2H-pyran-4-ylamino)cyclohexyl]-3-[(4-fluorophenyl)amino]-1H-pyrazole-4-carboxamide]: 6.35 and under 5.83.
Taken in the same sequence, the figures for `Cc1ccnc(N2CCC(CC#N)(n3cc(C(N)=O)c(Nc4ccc(F)cc4)n3)CC2)c1` [Example 3-31, 1-[4-(cyanomethyl)-1-(4-methylpyridin-2-yl)piperidin-4-yl]-3-[(4-fluorophenyl)amino]-1H-pyrazole-4-carboxamide] were 9.00 and 7.36.
The matching figures for `N#CCC1(n2cc(C(N)=O)c(Nc3ccc(F)cc3)n2)CCS(=O)(=O)CC1` [Example 8, 1-(4-(Cyanomethyl)-1,1-dioxidotetrahydro-2H-thiopyran-4-yl)-3-((4-fluorophenyl)amino)-1H-pyrazole-4-carboxamide]: 7.30 and 6.09.
Consider `COc1cc(F)cc(N2CCC(CC#N)(n3cc(C(N)=O)c(Nc4ccc(F)cc4)n3)CC2)c1` [Example 3-12, 1-[4-(cyanomethyl)-1-(3-fluoro-5-methoxyphenyl)piperidin-4-yl]-3-[(4-fluorophenyl)amino]-1H-pyrazole-4-carboxamide], for which the pIC50 at JAK1 was 8.70; at JAK2, 7.40.
The matching figures for `CC(C)(C)OC(=O)N1CCC(CC#N)(n2cc(C(N)=O)c(Nc3ccc(F)nc3)n2)CC1` [Example 12-5, tert-butyl 4-{4-carbamoyl-3-[(6-fluoropyridin-3-yl)amino]-1H-pyrazol-1-yl}-4-(cyanomethyl)piperidine-1-carboxylate]: 9.10 and 8.15.
The matching figures for `N#CCC1(n2cc(C(N)=O)c(Nc3ccc(F)cc3)n2)CCC(Nc2ccc(F)cc2)CC1` (stereo not drawn) [Example 40-18, Cis or trans 1-{1-(cyanomethyl)-4-[(4-fluorophenyl)amino]cyclohexyl}-3-[(4-fluorophenyl)amino]-1H-pyrazole-4-carboxamide]: 6.63 and under 5.83.
Taken in the same sequence, the figures for `N#CCC1(n2cc(C(N)=O)c(Nc3ccnc(F)c3)n2)CCN(Cc2ncco2)CC1` [Example 22-28, 1-[4-(cyanomethyl)-1-(1,3-oxazol-2-ylmethyl)piperidin-4-yl]-3-[(2-fluoropyridin-4-yl)amino]-1H-pyrazole-4-carboxamide] were 8.52 and 7.14.
For `N#CCC1(n2cc(C(N)=O)c(Nc3ccnc(F)c3)n2)CCC(NCc2ccc(F)cc2F)CC1` (stereo not drawn) [Example 41-4, Cis or trans 1-{1-(cyanomethyl)-4-[(2,4-difluorobenzyl)amino]cyclohexyl}-3-[(2-fluoropyridin-4-yl)amino]-1H-pyrazole-4-carboxamide], the pIC50 was 10.05 on JAK1 and 8.70 against JAK2.
As for `CC(C)(C)OC(=O)N1CCC(CC#N)(n2cc(C(N)=O)c(Nc3cccnc3)n2)CC1` [Example 9-34, tert-butyl 4-[4-carbamoyl-3-(pyridin-3-ylamino)-1H-pyrazol-1-yl]-4-(cyanomethyl)piperidine-1-carboxylate], the pIC50 on JAK1 was 9.30; against JAK2 it was 8.40.
As for `CC1(COC(=O)N2CCC(CC#N)(n3cc(C(N)=O)c(Nc4ccc(F)cc4)n3)CC2)COC1` [Example 30-20, (3-methyloxetan-3-yl)methyl 4-{4-carbamoyl-3-[(4-fluorophenyl)amino]-1H-pyrazol-1-yl}-4-(cyanomethyl)piperidine-1-carboxylate], the pIC50 at JAK1 was 8.10; against JAK2, 6.62.
Taken in the same sequence, the figures for `COC(=O)c1ccccc1CN1CCC(CC#N)(n2cc(C(N)=O)c(Nc3ccccc3)n2)CC1` [Example 21-29, methyl 2-({4-[4-carbamoyl-3-(phenylamino)-1H-pyrazol-1-yl]-4-(cyanomethyl)piperidin-1-yl}methyl)benzoate] were 7.68 and 6.40.
Taken in the same sequence, the figures for `CC(C)(C)OC(=O)N1CCC(CC#N)(n2cc(C(N)=O)c(Nc3ccccc3)n2)CC1` [Example 2-1, tert-Butyl 4-[4-carbamoyl-3-(phenylamino)-1H-pyrazol-1-yl]-4-(cyanomethyl)piperidine-1-carboxylate] were 9.00 and 7.57.
Take `CS(=O)(=O)c1ccc(Nc2nn(C3(CC#N)CN(C(=O)OC4CCOCC4)C3)cc2C(N)=O)cc1` [Example 30-76, tetrahydro-2H-pyran-4-yl 3-(4-carbamoyl-3-{[4-(methylsulfonyl)phenyl]amino}-1H-pyrazol-1-yl)-3-(cyanomethyl)azetidine-1-carboxylate]: the pIC50 on JAK1 is 7.13; at JAK2 it was 6.55.
As for `N#CCC1(n2cc(C(N)=O)c(Nc3ccc(F)cc3)n2)CCC(N2CCC(F)(F)CC2)CC1` (stereo not drawn) [Example 40-70, Cis or trans 1-[1-(cyanomethyl)-4-(4,4-difluoropiperidin-1-yl)cyclohexyl]-3-[(4-fluorophenyl)amino]-1H-pyrazole-4-carboxamide], the pIC50 is 9.70 at JAK1 and 8.05 against JAK2.

The record behind these values is patent US9328099B2, “Cyanomethylpyrazole carboxamides as janus kinase inhibitors” (Merck Sharp & Dohme Corp., priority 2011, dated 2016).
